The assay relates to Plasmodium falciparum. Nature of the assay: In vitro antimalarial activity against chloroquine-sensitive Plasmodium falciparum NF54. The assay is classed as functional, organism-based.
Regarding `C[C@H]1[C@H](c2ccc([C@@H]3O[C@@H]4O[C@]5(C)CC[C@H]6[C@H](C)CC[C@@H]([C@H]3C)[C@@]46OO5)o2)O[C@@H]2O[C@]3(C)CC[C@H]4[C@H](C)CC[C@@H]1[C@@]24OO3`, the IC50 is 3.2 nM.

For the molecule `C[C@H]1[C@@H](C#Cc2ccc(C#C[C@H]3O[C@@H]4O[C@]5(C)CC[C@H]6[C@H](C)CC[C@@H]([C@H]3C)[C@@]46OO5)cc2)O[C@@H]2O[C@]3(C)CC[C@H]4[C@H](C)CC[C@@H]1[C@@]24OO3`, the half-inhibitory concentration (IC50) worked out at 30 nM.

On to `C[C@H]1[C@@H](CC(=O)c2cccc(C(=O)C[C@H]3O[C@@H]4C[C@]5(C)CC[C@H]6[C@H](C)CC[C@@H]([C@H]3C)[C@@]46OO5)c2)O[C@@H]2C[C@]3(C)CC[C@H]4[C@H](C)CC[C@@H]1[C@@]24OO3`, for which the 50% inhibitory concentration (IC50) came to 1.9 nM.

`COc1cc(OC)c([C@@H]2O[C@@H]3O[C@]4(C)CC[C@H]5[C@H](C)CC[C@@H]([C@H]2C)[C@@]35OO4)cc1[C@@H]1O[C@@H]2O[C@]3(C)CC[C@H]4[C@H](C)CC[C@@H]([C@H]1C)[C@@]24OO3` gave an IC50 of 1.3 nM.

In the case of `C[C@H]1[C@@H](C#Cc2cccc(C#C[C@H]3O[C@@H]4O[C@]5(C)CC[C@H]6[C@H](C)CC[C@@H]([C@H]3C)[C@@]46OO5)c2)O[C@@H]2O[C@]3(C)CC[C@H]4[C@H](C)CC[C@@H]1[C@@]24OO3`, 36 nM corresponded to half-maximal inhibition (IC50).

`C[C@H]1[C@@H](CC(=O)c2ccc(C(=O)C[C@H]3O[C@@H]4O[C@]5(C)CC[C@H]6[C@H](C)CC[C@@H]([C@H]3C)[C@@]46OO5)cc2)O[C@@H]2O[C@]3(C)CC[C@H]4[C@H](C)CC[C@@H]1[C@@]24OO3`: half-maximal inhibition (IC50) was put at 1.9 nM.

In turn, `C[C@@H]1CC[C@H]2[C@@H](C)C(=O)O[C@@H]3O[C@@]4(C)CC[C@@H]1[C@]32OO4` [ARTEMISININ] showed an IC50 of 9.7 nM.

As a reminder, the IC50 is the concentration needed to halve the response being measured. The low end stands for higher potency, the high end for lower potency.
